Series [1] has as its target T1, human P2Y4 receptor (Homo sapiens, UniProt P51582). The experiment in a line: PLC activation. The series is classed as cell-based. As to conditions: for selectivity for human P2Y4 over P2Y2 and P2Y6 receptors: over both P2Y2 and P2Y6.
Series [2] deals with human P2Y2 receptor (Homo sapiens, UniProt P41231). As to the kind of experiment: PLC activation. In kind it is cell-based. The following applies: for effect at 10 µM, hP2Y2: printed in EC50 column, NE = no effect at 10 µM.
Chain of human P2Y2 receptor (P41231 whole entry): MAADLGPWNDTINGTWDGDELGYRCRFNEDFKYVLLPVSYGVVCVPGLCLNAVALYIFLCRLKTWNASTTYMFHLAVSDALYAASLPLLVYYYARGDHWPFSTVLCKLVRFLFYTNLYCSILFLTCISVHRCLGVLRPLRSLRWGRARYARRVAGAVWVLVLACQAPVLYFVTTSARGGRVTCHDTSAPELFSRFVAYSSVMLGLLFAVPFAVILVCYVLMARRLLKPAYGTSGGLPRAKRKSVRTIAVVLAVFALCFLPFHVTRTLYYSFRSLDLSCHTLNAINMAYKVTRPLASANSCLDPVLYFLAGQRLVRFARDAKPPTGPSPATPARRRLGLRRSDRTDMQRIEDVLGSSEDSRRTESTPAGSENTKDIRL
A short description of series [3]: Chemical stability: hydrolysis at 37°C and pH 1.5, HPLC. As to conditions: pH 1.5, 0.2 mg/mL, compared with 1 (UTP). The series is classed as physicochemical.
Series [4] has as its target T1, human P2Y4 receptor. The following applies: cited from earlier work.

Counter-ions that a name gives are not always drawn.

T1 sequence (P51582 whole entry): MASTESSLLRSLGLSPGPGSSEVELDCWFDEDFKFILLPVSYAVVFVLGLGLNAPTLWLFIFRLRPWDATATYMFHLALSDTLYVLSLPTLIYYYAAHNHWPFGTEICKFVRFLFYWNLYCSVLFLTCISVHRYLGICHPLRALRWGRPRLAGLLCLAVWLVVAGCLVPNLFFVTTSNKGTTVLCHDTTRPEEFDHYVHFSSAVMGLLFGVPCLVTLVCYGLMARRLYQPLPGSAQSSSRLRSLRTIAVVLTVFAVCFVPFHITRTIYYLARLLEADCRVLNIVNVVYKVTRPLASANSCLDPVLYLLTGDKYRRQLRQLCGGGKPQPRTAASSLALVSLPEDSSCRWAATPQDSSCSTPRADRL

As to `O=c1[nH]/c(=N\OCCCc2ccccc2)ccn1[C@@H]1O[C@H](COP(=O)(O)OP(=O)(O)OP(=O)(O)O)[C@@H](O)[C@H]1O` [Compound 16, N^4-Phenylpropoxycytidine-5′-triphosphate triethylammonium salt], the “selectivity for human P2Y4 over P2Y2 and P2Y6 receptors” value (“selectivity for human P2Y4” below) in series [1] was no less than 10 fold. With `O=c1ccn([C@@H]2O[C@H](COP(=O)(O)OP(=O)(O)OP(=O)(O)OP(=O)(O)O[C@H]3O[C@H](CO)[C@@H](O)[C@@H](O)[C@H]3O)[C@@H](O)[C@H]2O)c(=O)[nH]1` [Compound 28, Uridine-5′-allose-1′-tetraphosphate triethylammonium salt], the “increase in P2Y4 receptor potency relative to Up4-[1]glucose 8” value in series [1] (compared with 8) worked out at 11 fold. In the case of `O=c1ccn([C@@H]2O[C@H](COP(=O)(O)OP(=O)(O)OP(=O)(O)OP(=O)(O)Oc3ccc([N+](=O)[O-])cc3)[C@@H](O)[C@H]2O)c(=O)[nH]1` [Compound 24, Uridine-5′-(4-nitrophenyl)-tetraphosphate triethylammonium salt], in series [2], the “effect at 10 µM, hP2Y2” value is “abolished activity”. The same measure, in the same setting: the same measure for `O=c1ccn([C@@H]2O[C@H](COP(=O)(O)OP(=O)(O)C(Cl)(Cl)P(=O)(O)OP(=O)(O)O[C@H]3O[C@H](CO)[C@@H](O)[C@H](O)[C@H]3O)[C@@H](O)[C@H]2O)c(=O)[nH]1` [Compound 26, Uridine-5′-glucose-1′-β,γ-dichloromethylene tetraphosphate triethylammonium salt]: no more than 50% at 10 µM; for `COc1cccc(OP(=O)(O)OP(=O)(O)OP(=O)(O)OP(=O)(O)OC[C@H]2O[C@@H](n3ccc(=O)[nH]c3=O)[C@H](O)[C@@H]2O)c1` [Compound 23, Uridine-5′-(3-methoxyphenyl)-tetraphosphate triethylammonium salt]: no more than 50% at 10 µM. In the case of `O=c1ccn([C@@H]2O[C@H](COP(=O)(O)OP(=O)(O)OP(=O)(O)OP(=O)(O)O[C@H]3OC[C@@H](O)[C@H](O)[C@H]3O)[C@@H](O)[C@H]2O)c(=O)[nH]1` [Compound 30, Uridine-5′-xylose-1′-tetraphosphate triethylammonium salt], the “reduction in potency at P2Y2 receptor relative to 8” value in series [2] (fold less potent than 8) turned out to be 9 fold. As for `O=c1[nH]/c(=N\OCCc2ccccc2)ccn1[C@@H]1O[C@H](COP(=O)(O)OP(=O)(O)OP(=O)(O)O)[C@@H](O)[C@H]1O` [Compound 15, N^4-Phenylethoxycytidine-5′-triphosphate triethylammonium salt], the “selectivity for human P2Y4” value in series [1] is no less than 10 fold.

Regarding `O=c1ccn([C@@H]2O[C@H](COP(=O)(O)OP(=O)(O)OP(=O)(O)OP(=O)(O)O[C@H]3O[C@H](CO)[C@@H](O)[C@H](F)[C@H]3O)[C@@H](O)[C@H]2O)c(=O)[nH]1` [Compound 34, P^1-(Uridine-5′-)P^4-(3′-deoxy-3′-fluoroglucose-1′-)tetraphosphate triethylammonium salt], the “selectivity for human P2Y4” value in series [1] is listed as no less than 10 fold. Further, the “stability at pH 1.5” value in series [3] was “much more labile”. Consider `O=c1ccn([C@@H]2O[C@H](COP(=O)(O)OP(=O)(O)OP(=O)(O)OP(=O)(O)O[C@H]3O[C@H](CO)[C@@H](O)[C@H](O)[C@H]3O)[C@@H](O)[C@H]2O)c(=O)[nH]1` [Compound 8, Up4-[1]glucose, reference compound], for which, in series [3], the “stability at pH 1.5” value is on record as “less stable at pH 1.5 than 1”.

Turning to `[N-]=[N+]=N[C@@H]1[C@H](O)[C@@H](COP(=O)(O)OP(=O)(O)OP(=O)(O)O)O[C@H]1n1ccc(=O)[nH]c1=O` [Compound 3], in series [4], the “selectivity for the P2Y4 receptor in comparison to the P2Y2 receptor” value was 5 fold. For `COc1ccc(OP(=O)(O)OP(=O)(O)OP(=O)(O)OP(=O)(O)OC[C@H]2O[C@@H](n3ccc(=O)[nH]c3=O)[C@H](O)[C@@H]2O)cc1` [Compound 22, Uridine-5′-(4-methoxyphenyl)-tetraphosphate triethylammonium salt], in series [2], the “effect at 10 µM, hP2Y2” value is given as no more than 50% at 10 µM.

The record behind these values is PMC3117126 (Journal of medicinal chemistry, 2011).
